In patent publication US4942245A, “Benzimidazole Derivatives” (Kyorin Pharmaceutical Co., Ltd., priority 1987, dated 1990):

Experiments:
[1] = tested on: leukotriene D4; assay: Leukotriene D4-induced bronchoconstriction (modified Konzett-Rossler, transpulmonary pressure) in anesthetized guinea pig, oral administration; assay type: in vivo, male Hartley guinea pig; details: p.o., 2 hours before leukotriene D4 (3 μg/kg, i.v.)
Procedure: A male Hartley guinea pig weighing about 450 g was anesthetized with sodium pentobarbital (30 mg/kg,i.p.). The change in transpulmonary pressure was measured by modifying the method of Konzett-Rossler (J. Harvey, et al., J. Pharmacol. Method. 9, 147-155, 1983) under an artificial ventilation. Animal was treated with indomethacin (10 mg/kg,i.v.) and propranolol (1 mg/kg,i.v.). Bronchoconstrictor response was obtained by bolus injection of leukotriene D4 (3 μg/kg,i.v.). Test compounds were suspended in 5% Gum Arabic solution and orally administered 2 hours before the challenge with leukotriene D4.

[2] = tested on: leukotriene; details: oral; P. Sheard et al, 1977; cited from earlier work

Compound | Inhibition (%) of LTD4-induced bronchoconstrictor response ([1]; 100 mg/kg) [%] | Inhibition (%) of LTD4-induced bronchoconstrictor response ([1]; 200 mg/kg) [%] | other results
CCCc1c(OCCCSc2nc3ccc(C(=O)O)cc3[nH]2)ccc(C(C)=O)c1O [Example 1, 2-[3-(4-Acetyl-3-hydroxy-2-propylphenoxy)propyl-thio]benzimidazole-5-carboxylic acid] | 47.8 | 63.3 | –
CCCc1c(OCCCS(=O)(=O)c2nc3ccc(C(=O)O)cc3[nH]2)ccc(C(C)=O)c1O [Example 6, 2-[3-(4-Acetyl-3-hydroxy-2-propylphenoxy)propylsulfonyl]benzimidazole-5-carboxylic acid] | – | 40.5 | –
CCCc1c(OCCCCSc2nc3cc(C(=O)O)ccc3[nH]2)ccc(C(C)=O)c1O [Example 11] | 84.6 | – | Inhibition (%) of LTD4-induced bronchoconstrictor response ([1]; 25 mg/kg): 27.6%; Inhibition (%) of LTD4-induced bronchoconstrictor response ([1]; 50 mg/kg): 73.1%
CCCc1c(OCCCC[S+]([O-])c2nc3cc(C(=O)O)ccc3[nH]2)ccc(C(C)=O)c1O (stereo not drawn) [Example 12] | – | 33.3 | –
CCCc1c(OCCCCCSc2nc3cc(C(=O)O)ccc3[nH]2)ccc(C(C)=O)c1O [Example 24] | – | 57.1 | –
CCCc1c(OCCCCc2nc3ccc(C(=O)O)cc3[nH]2)ccc(C(C)=O)c1O [Example 36, 2-[4-(4-Acetyl-3-hydroxy-2-propylphenoxy)butyl]-benzimidazole-5-carboxylic acid] | 44.6 | 88.6 | –
CCCc1c(OCC(O)COc2ccc3c(=O)cc(C(=O)O)oc3c2CCC)ccc(C(C)=O)c1O (stereo not drawn) [FPL55712] | – | – | effect of leukotriene antagonist when administered orally [2]: no effect
CCCc1c(OCCCS(=O)(=O)c2nc3ccccc3[nH]2)ccc(C(C)=O)c1O [Ref. 1, 2-[3-(4-acetyl-3-hydroxy-2-propylphenoxy)propylsulfonyl]-benzimidazole, reference compound] | – | – | Inhibition (%) of LTD4-induced bronchoconstrictor response ([1]; 400 mg/kg): 19.5%
